From PubChem BioAssay (NCI) come the findings set out here.

Among the test systems are UACC-62 melanoma; SN12C renal; SK-MEL-2 melanoma; KM12 colon; LOX IMVI melanoma; HS 578T breast; NCI-H522 lung; A549 NSCLC.
Experiment in all cases: DTP human tumour cell line panel, 48 h

Several values for one entry are separate records, joined by “and”; a condition that tells them apart may be missing. Equal values may be shown once.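 Exposure lasted 48 hours, with cells grown in 96-well plates and compounds tested at five concentrations. GI50 marks 50% less growth. TGI marks complete inhibition of growth.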

As to `FC(F)(F)c1cc(NC2=NCCN=C(Nc3cc(C(F)(F)F)cc(C(F)(F)F)c3)SS2)cc(C(F)(F)F)c1`, the GI50 with UACC-62 melanoma is 3.55 µM; in the experiment on SN12C renal it was 3.29 µM; in the experiment on SK-MEL-2 melanoma, 4.49 µM; in the experiment with KM12 colon it was 3.72 µM; with LOX IMVI melanoma it was 4.59 µM; in the experiment on HS 578T breast it was 5.08 µM. Besides, the GI50 in the experiment with NCI-H522 lung was 2.84 µM; in the experiment on A549 NSCLC, 3.68 µM. Moreover, the concentration for total growth inhibition (TGI) stood at 14.5 µM with UACC-62 melanoma; 13.1 µM in the experiment on SN12C renal; 14.3 µM in the experiment with SK-MEL-2 melanoma; 12.3 µM in the experiment with KM12 colon; 16.9 µM with LOX IMVI melanoma; 27.6 µM in the experiment with HS 578T breast. In addition, the TGI with NCI-H522 lung is 10.6 µM; in the experiment with A549 NSCLC, 17.4 µM.
In the case of `N#Cc1ccc2c(c1)C(=O)c1c-2n(CCCN=[N+]=[N-])c(=O)c2cc([N+](=O)[O-])ccc12`, the GI50 with UACC-62 melanoma is 3.6 µM; in the experiment with SN12C renal it was 47.2 µM; with SK-MEL-2 melanoma, over 50 µM; with KM12 colon it was over 50 µM; in the experiment with LOX IMVI melanoma, 4.85 µM; with HS 578T breast, over 50 µM. For the same compound, the GI50 in the experiment with NCI-H522 lung was 37.4 µM. Further, the TGI in the experiment on UACC-62 melanoma, in the experiment on SN12C renal, in the experiment on SK-MEL-2 melanoma, in the experiment on KM12 colon, in the experiment on LOX IMVI melanoma and in the experiment with HS 578T breast was over 50 µM each time. The TGI in the experiment with NCI-H522 lung was over 50 µM.
For `Cc1cc(S(=O)(=O)Nc2nc3cc(-c4ccsc4)sc3c(=O)n2N)c(S)cc1Cl`, the GI50 with UACC-62 melanoma was 24.8 µM; in the experiment with SN12C renal, over 100 µM; in the experiment on SK-MEL-2 melanoma, over 100 µM; in the experiment on KM12 colon, 68.6 µM; in the experiment on LOX IMVI melanoma, 60.7 µM; in the experiment with HS 578T breast, 35.7 µM. The GI50 with NCI-H522 lung is over 100 µM; with A549 NSCLC, 47.4 µM. The TGI was 72.2 µM in the experiment with UACC-62 melanoma; over 100 µM in the experiment on SN12C renal; over 100 µM in the experiment on SK-MEL-2 melanoma; over 100 µM in the experiment on KM12 colon; over 100 µM with LOX IMVI melanoma; over 100 µM with HS 578T breast. Besides, the TGI with NCI-H522 lung and in the experiment with A549 NSCLC was over 100 µM throughout.
On to `N#CC1CCc2c(c(-c3cn[nH]c3C(F)(F)F)nc3c(F)cc4[nH]ncc4c23)C1` (configuration not stated), for which the GI50 in the experiment on UACC-62 melanoma is 3.43 µM; in the experiment with SN12C renal it was 4.22 µM; in the experiment on SK-MEL-2 melanoma, 2.4 µM; in the experiment on KM12 colon, 3.34 µM; in the experiment on LOX IMVI melanoma it was 3.45 µM; in the experiment with HS 578T breast, 3.16 µM. Besides, the GI50 is 2.31 µM in the experiment on NCI-H522 lung and 21.2 µM with A549 NSCLC. The TGI with UACC-62 melanoma was determined as 11.5 µM; in the experiment on SN12C renal, 68.4 µM; in the experiment with SK-MEL-2 melanoma it was 6.78 µM; in the experiment on KM12 colon it was 41.9 µM; in the experiment on LOX IMVI melanoma it was 15.3 µM; with HS 578T breast, 11.5 µM. Moreover, the TGI in the experiment on NCI-H522 lung was 8.61 µM; in the experiment with A549 NSCLC, over 100 µM.
Turning to `CC[C@H](C)[C@H](NC(=O)c1nccn1C)C(=O)N(C)[C@H](C[C@@H](OC(C)=O)c1nc(C(=O)N[C@@H](Cc2ccccc2)C[C@H](C)C(=O)OC)cs1)C(C)C`, the concentration for 50% growth inhibition (GI50) in the experiment on UACC-62 melanoma is 0.289 µM; in the experiment on SN12C renal, 2.41 µM; in the experiment with SK-MEL-2 melanoma, 0.806 µM; with KM12 colon, 0.553 µM; with LOX IMVI melanoma, 1.59 µM; with HS 578T breast, 1.11 µM. Besides, the GI50 in the experiment with NCI-H522 lung was 0.351 µM; in the experiment with A549 NSCLC, 2.43 µM. The total growth inhibition concentration (TGI) in the experiment with UACC-62 melanoma, in the experiment with SN12C renal, in the experiment with SK-MEL-2 melanoma, in the experiment on KM12 colon, in the experiment with LOX IMVI melanoma and in the experiment with HS 578T breast was over 33.3 µM in each case. The figures for the TGI in the experiment with NCI-H522 lung and with A549 NSCLC were 1.56 µM and over 33.3 µM, respectively.
As to `CC(C)(F)C[C@H](N[C@@H](c1ccc(-c2ccc(S(C)(=O)=O)cc2)cc1)C(F)(F)F)C(=O)NC1(C#N)CC1`, the GI50 in the experiment on UACC-62 melanoma is 27.3 µM and 51.9 µM; with SN12C renal it was 14.8 µM and 42.6 µM; with SK-MEL-2 melanoma it was 13.4 µM and 38.6 µM; with KM12 colon, over 100 µM; in the experiment with LOX IMVI melanoma, over 100 µM; in the experiment on HS 578T breast, 13.6 µM and 21.1 µM. For the same compound, the GI50 was 15.8 µM and 24.7 µM in the experiment on NCI-H522 lung; > 55 µM and 41.8 µM in the experiment with A549 NSCLC. Besides, the TGI in the experiment with UACC-62 melanoma is 55 µM and > 100 µM; in the experiment with SN12C renal, 55 µM and > 100 µM; with SK-MEL-2 melanoma, 55 µM and > 100 µM; in the experiment on KM12 colon, over 100 µM; in the experiment with LOX IMVI melanoma it was over 100 µM; with HS 578T breast it was 55 µM and 63.9 µM. Besides, the TGI in the experiment with NCI-H522 lung was 55 µM and > 100 µM; with A549 NSCLC, over 100 µM.
In the case of `c1ccc(-c2cnc3nc4ccccc4nc3n2)cc1`, the TGI in the experiment with UACC-62 melanoma came to 15.4 µM; in the experiment with SN12C renal, 31.5 µM; in the experiment with SK-MEL-2 melanoma, 15.1 µM; in the experiment with KM12 colon, 21.8 µM; in the experiment with LOX IMVI melanoma, 20.1 µM; in the experiment on HS 578T breast, 33.3 µM. Also, the total growth inhibition concentration (TGI) was determined as 19 µM with NCI-H522 lung and 23.6 µM in the experiment on A549 NSCLC.
For the compound `CC(=O)Nc1cc2cc(NS(=O)(=O)c3cc(C(F)(F)F)cc(C(F)(F)F)c3)ccc2oc1=O`, the TGI in the experiment with UACC-62 melanoma, in the experiment on SN12C renal, with SK-MEL-2 melanoma, in the experiment on KM12 colon, in the experiment with LOX IMVI melanoma and in the experiment with HS 578T breast was over 100 µM throughout. Besides, the TGI with NCI-H522 lung and in the experiment on A549 NSCLC was over 100 µM throughout.
On to `Cc1ccc(S(=O)(=O)c2ccsc2N)cc1`, for which the GI50 in the experiment on UACC-62 melanoma, in the experiment with SN12C renal, with SK-MEL-2 melanoma, in the experiment on KM12 colon, in the experiment with LOX IMVI melanoma and in the experiment on HS 578T breast was over 100 µM throughout. Also, the GI50 with NCI-H522 lung and in the experiment on A549 NSCLC was over 100 µM each time. Also, the TGI in the experiment with UACC-62 melanoma, in the experiment with SN12C renal, in the experiment on SK-MEL-2 melanoma, with KM12 colon, with LOX IMVI melanoma and in the experiment on HS 578T breast was over 100 µM each time. Further, the TGI with NCI-H522 lung and in the experiment on A549 NSCLC was over 100 µM each time.
Turning to `COc1cc(/C=C\c2cc(OC)c(OC)c(OC)c2)cc(NS(=O)(=O)c2cccc(Cl)c2)c1OC`, the GI50 in the experiment on UACC-62 melanoma is 0.0568 µM; in the experiment on SN12C renal, 0.223 µM; in the experiment on SK-MEL-2 melanoma, 1.38 µM; with KM12 colon it was 0.0437 µM; in the experiment with LOX IMVI melanoma, 0.0574 µM; with HS 578T breast, 0.0795 µM. Moreover, the figures for the 50% growth inhibitory concentration (GI50) in the experiment on NCI-H522 lung and in the experiment with A549 NSCLC were 0.0373 µM and 0.264 µM, respectively. Further, the TGI in the experiment on UACC-62 melanoma, in the experiment on SN12C renal, with SK-MEL-2 melanoma, with KM12 colon, in the experiment with LOX IMVI melanoma and in the experiment on HS 578T breast was over 100 µM throughout. Moreover, the values for the TGI in the experiment on NCI-H522 lung and in the experiment with A549 NSCLC were 88.2 µM and over 100 µM, respectively.
